Results: patent publication US20050197350A1, “Novel quinoline, tetrahydroquinazoline, and pyrimidine derivatives and methods of treatment related to the use thereof” (TAISHO PHARMACEUTICAL CO., LTD., priority 2003, published 2005)

The compounds below were run on MCH receptors (assay: MCH receptor activity class (method not given)). Settings: class by percent of control at 10^−7 M or IC50.

Which class does the source give for Cc1ccc(C(=O)N[C@H]2CC[C@@H](CNc3ncc(C)c(N(C)C)n3)CC2)cc1F [compound 2717] here?
Its class is 3 (Class 3 The value of percent of control at 10^−7 M was more than 60% or the value of IC50 was more than 200 nM.).

With Cc1cc(C(=O)N[C@H]2CC[C@@H](CNc3ncc(C)c(N(C)C)n3)CC2)ccc1F [compound 2718] as the compound, how does the class read?
The class was 2 (Class 2: The value of percent of control at 10^−7 M was from 40% to 60% or the value of IC′50 was from 50 nM to 200 nM.).

Which class does the source give for Cc1cnc(NC[C@H]2CC[C@@H](NC(=O)c3cccc(C(F)(F)F)c3)CC2)nc1N(C)C [compound 2719] here?
The class was 3 (Class 3 The value of percent of control at 10^−7 M was more than 60% or the value of IC50 was more than 200 nM.).

How did the class turn out when Cc1cnc(NC[C@H]2CC[C@@H](NC(=O)c3ccc(C(F)(F)F)cc3)CC2)nc1N(C)C [compound 2720] was run?
Its class is 3 (Class 3 The value of percent of control at 10^−7 M was more than 60% or the value of IC50 was more than 200 nM.).

How did the class turn out when Cc1cnc(NC[C@H]2CC[C@@H](NC(=O)c3cccc(OC(F)(F)F)c3)CC2)nc1N(C)C [compound 2721] was run?
Its class is 3 (Class 3 The value of percent of control at 10^−7 M was more than 60% or the value of IC50 was more than 200 nM.).

For Cc1cnc(NC[C@H]2CC[C@@H](NC(=O)c3ccc(OC(F)(F)F)cc3)CC2)nc1N(C)C [compound 2722], which class is on record?
The class was 3 (Class 3 The value of percent of control at 10^−7 M was more than 60% or the value of IC50 was more than 200 nM.).

For Cc1cnc(NC[C@H]2CC[C@@H](NC(=O)c3ccc(C#N)cc3)CC2)nc1N(C)C [compound 2723], which class is on record?
Its class is 3 (Class 3 The value of percent of control at 10^−7 M was more than 60% or the value of IC50 was more than 200 nM.).

For Cc1cnc(NC[C@H]2CC[C@@H](NC(=O)c3ccc(Br)cc3)CC2)nc1N(C)C [compound 2724, 4-bromo-N-[cis-4-({[4-(dimethylamino)-5-methylpyrimidin-2-yl]amino}methyl)cyclohexyl]benzamide], which class is on record?
Its class is 3 (Class 3 The value of percent of control at 10^−7 M was more than 60% or the value of IC50 was more than 200 nM.).

For Cc1cc(C(=O)N[C@H]2CC[C@@H](CNc3ncc(C)c(N(C)C)n3)CC2)ccc1Br [compound 2725, 4-bromo-N-[cis-4-({[4-(dimethylamino)-5-methylpyrimidin-2-yl]amino}methyl)cyclohexyl]-3-methylbenzamide], which class is on record?
Its class is 2 (Class 2: The value of percent of control at 10^−7 M was from 40% to 60% or the value of IC′50 was from 50 nM to 200 nM.).

With Cc1cnc(NC[C@H]2CC[C@@H](NC(=O)c3ccc(F)c(Cl)c3)CC2)nc1N(C)C [compound 2726] as the compound, how does the class read?
The class was 2 (Class 2: The value of percent of control at 10^−7 M was from 40% to 60% or the value of IC′50 was from 50 nM to 200 nM.).

Which class does the source give for Cc1cnc(NC[C@H]2CC[C@@H](NC(=O)c3ccc(C(F)(F)F)c(F)c3)CC2)nc1N(C)C [compound 2727] here?
The class was 3 (Class 3 The value of percent of control at 10^−7 M was more than 60% or the value of IC50 was more than 200 nM.).

With Cc1cnc(NC[C@H]2CC[C@@H](NC(=O)c3cc(Cl)cc(Cl)c3)CC2)nc1N(C)C [compound 2728, 3,5-dichloro-N-[cis-4-({[4-(dimethylamino)-5-methylpyrimidin-2-yl]amino}methyl)cyclohexyl]benzamide] as the compound, how does the class read?
The class was 2 (Class 2: The value of percent of control at 10^−7 M was from 40% to 60% or the value of IC′50 was from 50 nM to 200 nM.).

Cc1cnc(NC[C@H]2CC[C@@H](NC(=O)c3ccc(Cl)c(Cl)c3)CC2)nc1N(C)C [compound 2729, 3,4-dichloro-N-[cis-4-({[4-(dimethylamino)-5-methylpyrimidin-2-yl]amino}methyl)cyclohexyl]benzamide] was tested. Which class did it give?
Its class is 3 (Class 3 The value of percent of control at 10^−7 M was more than 60% or the value of IC50 was more than 200 nM.).

How did the class turn out when Cc1cnc(NC[C@H]2CC[C@@H](NC(=O)c3ccc4c(c3)OC(F)(F)O4)CC2)nc1N(C)C [compound 2730] was run?
The class was 3 (Class 3 The value of percent of control at 10^−7 M was more than 60% or the value of IC50 was more than 200 nM.).

With Cc1cnc(NC[C@H]2CC[C@@H](NC(=O)c3cc(C(F)(F)F)cc(C(F)(F)F)c3)CC2)nc1N(C)C [compound 2731, N-[cis-4-({[4-(dimethylamino)-5-methylpyrimidin-2-yl]amino}methyl)cyclohexyl]-3,5-bis(trifluoromethyl)benzamide] as the compound, how does the class read?
Its class is 2 (Class 2: The value of percent of control at 10^−7 M was from 40% to 60% or the value of IC′50 was from 50 nM to 200 nM.).

With Cc1cc(N(C)C)nc(NC[C@H]2CC[C@@H](NC(=O)c3ccccc3)CC2)n1 [compound 2732, N-[cis-4-({[4-(dimethylamino)-6-methylpyrimidin-2-yl]amino}methyl)cyclohexyl]benzamide] as the compound, how does the class read?
The class was 3 (Class 3 The value of percent of control at 10^−7 M was more than 60% or the value of IC50 was more than 200 nM.).

How did the class turn out when Cc1ccc(C(=O)N[C@H]2CC[C@@H](CNc3nc(C)cc(N(C)C)n3)CC2)cc1 [compound 2733] was run?
The class was 3 (Class 3 The value of percent of control at 10^−7 M was more than 60% or the value of IC50 was more than 200 nM.).

Cc1cc(N(C)C)nc(NC[C@H]2CC[C@@H](NC(=O)c3ccc(F)c(F)c3)CC2)n1 [compound 2734, N-[cis-4-({[4-(dimethylamino)-6-methylpyrimidin-2-yl]amino}methyl)cyclohexyl]-3,4-difluorobenzamide] was tested. Which class did it give?
Its class is 3 (Class 3 The value of percent of control at 10^−7 M was more than 60% or the value of IC50 was more than 200 nM.).

Which class does the source give for COc1ccc(C(=O)N[C@H]2CC[C@@H](CNc3nc(C)cc(N(C)C)n3)CC2)cc1 [compound 2735] here?
Its class is 3 (Class 3 The value of percent of control at 10^−7 M was more than 60% or the value of IC50 was more than 200 nM.).

With COc1cc(OC)cc(C(=O)N[C@H]2CC[C@@H](CNc3nc(C)cc(N(C)C)n3)CC2)c1 [compound 2736] as the compound, how does the class read?
The class was 3 (Class 3 The value of percent of control at 10^−7 M was more than 60% or the value of IC50 was more than 200 nM.).

For Cc1cc(N(C)C)nc(NC[C@H]2CC[C@@H](NC(=O)c3ccc(C)c(F)c3)CC2)n1 [compound 2737], which class is on record?
The class was 3 (Class 3 The value of percent of control at 10^−7 M was more than 60% or the value of IC50 was more than 200 nM.).

How did the class turn out when Cc1cc(N(C)C)nc(NC[C@H]2CC[C@@H](NC(=O)c3ccc(F)c(C)c3)CC2)n1 [compound 2738] was run?
The class was 3 (Class 3 The value of percent of control at 10^−7 M was more than 60% or the value of IC50 was more than 200 nM.).

Cc1cc(N(C)C)nc(NC[C@H]2CC[C@@H](NC(=O)c3cccc(C(F)(F)F)c3)CC2)n1 [compound 2739] was tested. Which class did it give?
Its class is 3 (Class 3 The value of percent of control at 10^−7 M was more than 60% or the value of IC50 was more than 200 nM.).

How did the class turn out when Cc1cc(N(C)C)nc(NC[C@H]2CC[C@@H](NC(=O)c3ccc(C(F)(F)F)cc3)CC2)n1 [compound 2740] was run?
The class was 3 (Class 3 The value of percent of control at 10^−7 M was more than 60% or the value of IC50 was more than 200 nM.).

For Cc1cc(N(C)C)nc(NC[C@H]2CC[C@@H](NC(=O)c3cccc(OC(F)(F)F)c3)CC2)n1 [compound 2741], which class is on record?
Its class is 3 (Class 3 The value of percent of control at 10^−7 M was more than 60% or the value of IC50 was more than 200 nM.).

Which class does the source give for Cc1cc(N(C)C)nc(NC[C@H]2CC[C@@H](NC(=O)c3ccc(OC(F)(F)F)cc3)CC2)n1 [compound 2742] here?
Its class is 3 (Class 3 The value of percent of control at 10^−7 M was more than 60% or the value of IC50 was more than 200 nM.).

With Cc1cc(N(C)C)nc(NC[C@H]2CC[C@@H](NC(=O)c3ccc(C#N)cc3)CC2)n1 [compound 2743] as the compound, how does the class read?
The class was 3 (Class 3 The value of percent of control at 10^−7 M was more than 60% or the value of IC50 was more than 200 nM.).

For Cc1cc(N(C)C)nc(NC[C@H]2CC[C@@H](NC(=O)c3ccc(Br)cc3)CC2)n1 [compound 2744, 4-bromo-N-[cis-4-({[4-(dimethylamino)-6-methylpyrimidin-2-yl]amino}methyl)cyclohexyl]benzamide], which class is on record?
Its class is 2 (Class 2: The value of percent of control at 10^−7 M was from 40% to 60% or the value of IC′50 was from 50 nM to 200 nM.).

For Cc1cc(N(C)C)nc(NC[C@H]2CC[C@@H](NC(=O)c3ccc(Br)c(C)c3)CC2)n1 [compound 2745, 4-bromo-N-[cis-4-({[4-(dimethylamino)-6-methylpyrimidin-2-yl]amino}methyl)cyclohexyl]-3-methylbenzamide], which class is on record?
The class was 2 (Class 2: The value of percent of control at 10^−7 M was from 40% to 60% or the value of IC′50 was from 50 nM to 200 nM.).

For Cc1cc(N(C)C)nc(NC[C@H]2CC[C@@H](NC(=O)c3ccc(F)c(Cl)c3)CC2)n1 [compound 2746], which class is on record?
The class was 3 (Class 3 The value of percent of control at 10^−7 M was more than 60% or the value of IC50 was more than 200 nM.).

Which class does the source give for Cc1cc(N(C)C)nc(NC[C@H]2CC[C@@H](NC(=O)c3ccc(C(F)(F)F)c(F)c3)CC2)n1 [compound 2747] here?
Its class is 3 (Class 3 The value of percent of control at 10^−7 M was more than 60% or the value of IC50 was more than 200 nM.).

Which class does the source give for Cc1cc(N(C)C)nc(NC[C@H]2CC[C@@H](NC(=O)c3cc(Cl)cc(Cl)c3)CC2)n1 [compound 2748] here?
The class was 2 (Class 2: The value of percent of control at 10^−7 M was from 40% to 60% or the value of IC′50 was from 50 nM to 200 nM.).

Which class does the source give for Cc1cc(N(C)C)nc(NC[C@H]2CC[C@@H](NC(=O)c3ccc(Cl)c(Cl)c3)CC2)n1 [compound 2749] here?
The class was 2 (Class 2: The value of percent of control at 10^−7 M was from 40% to 60% or the value of IC′50 was from 50 nM to 200 nM.).

How did the class turn out when Cc1cc(N(C)C)nc(NC[C@H]2CC[C@@H](NC(=O)c3ccc4c(c3)OC(F)(F)O4)CC2)n1 [compound 2750] was run?
The class was 3 (Class 3 The value of percent of control at 10^−7 M was more than 60% or the value of IC50 was more than 200 nM.).

With Cc1cc(N(C)C)nc(N[C@H]2CC[C@@H](CNC(=O)c3ccccc3)CC2)n1 [compound 2751, N-[(cis-4-{[4-(dimethylamino)-6-methylpyrimidin-2-yl]amino}cyclohexyl)methyl]benzamide] as the compound, how does the class read?
The class was 3 (Class 3 The value of percent of control at 10^−7 M was more than 60% or the value of IC50 was more than 200 nM.).

How did the class turn out when Cc1ccc(C(=O)NC[C@H]2CC[C@@H](Nc3nc(C)cc(N(C)C)n3)CC2)cc1 [compound 2752] was run?
Its class is 3 (Class 3 The value of percent of control at 10^−7 M was more than 60% or the value of IC50 was more than 200 nM.).
